{
  "source": "patent US11510931B2",
  "about": "“Compositions and methods for treating ophthalmic conditions” (MEDICON PHARMACEUTICALS, INC., priority 2016, dated 2022)",
  "key": {"[1]": {"test_system": "VEGF", "experiment": "VEGF immunohistochemistry in inferior lacrimal gland of rabbits with DED", "assay_type": "in vivo, rabbit", "settings": "PS 3.5% eye drops three times per day, 1 week, vs vehicle", "method": "Rabbits with ConA-induced dry eye disease (n=8 eyes/group) were treated with PS 3.5% eye drops three times per day or vehicle for 1 week. […] Immunohistochemistry for VEGF was performed on tissue sections and VEGF positive vessels were counted. PS reduced the number of VEGF positive cells by 73% bringing it to nearly normal values (the level in naïve rabbits)"}, "[2]": {"test_system": "IL-8", "experiment": "IL-8 levels in the ILG of rabbits with DED (ELISA)", "assay_type": "in vivo, rabbit", "method": "Using this model, we compared the effect of PS to that of cyclosporine and lifitegrast. Rabbits were treated for 6 days with PS as above or cyclosporine 0.05% or lifitegrast 5% eye drops 3×/day. In addition to determining TUBT, osmolarity and STT, we measured the levels of IL-8 and IL-1β in the ILGs of the rabbits harvested at euthanasia. Both of these cytokines are significant mediators of inflammation in DED. As shown in the table below, PS had statistically significant effects on TBUT, tear osmolarity, IL-8 and IL-1β levels. […] Of note, lifitegrast suppressed STT below the levels of the vehicle group and this suppression was statistically significant, but in the opposite direction for a useful therapeutic effect.\nMoreover, for all three cytokines PS suppressed their unstimulated levels as well (62%, 84% and 4.7% reduction, respectively). In addition, PS suppressed the levels of IL-8 by 64% and IL-1β (not expressed by the cultured cells) by 61% in the ILG of rabbits treated with PS for 1 week compared to controls treated with vehicle (FIG. 8B). TGF-β was not detectable by the method in ILG homogenates. All these changes were statistically significant (p<0.001-0.04, except for the unstimulated TGF-β)."}, "[3]": {"test_system": "chorioallantoic membrane (CAM)", "experiment": "Chorioallantoic membrane (CAM) neovascularization assay", "assay_type": "in vivo, chicken", "settings": "day 4; for # of new vessels: Mean ± SEM", "method": "Second, the effect of PS on new vessel formation (neovascularization) was evaluated using the chorioallantoic membrane (CAM) assay. In this assay, fertilized white chicken eggs (SPF Premium, Charles River Laboratory, North Franklin, Conn.) were incubated at 37° C. in 70% humidity for 3 days. The embryos were then incubated ex vivo in a sterile Petri dish for 7 days. Gelatin sponges adsorbed with or without VEGF plus PS or water (vehicle control) were implanted on the CAM surface and the neovasculature was counted on day 4 post implantation under a dissecting microscope."}, "[4]": {"experiment": "Biodistribution of PS in human eyes (ex vivo)", "assay_type": "in vitro ADME", "settings": "human eye ex vivo, 10 min contact, 60 min incubation", "method": "Biodistribution of PS in human eyes (ex vivo): Human cadaveric eyes were obtained through the Lions Eye Bank for Long Island, Valley Stream, NY. They were preserved on ice and used within 2 h from removal from the donors.\nThe anterior surface of the human eye (corresponding to an area slightly larger than the palpebral fissure) was brought into direct contact with a PS HP-β-CD solution (PS concentration at 0.5%, 2.0% and 3.3%) and incubated for 10 min at 37° C. The eye was then rinsed with 10% dimethylsulfoxide (DMSO) to remove residual PS from the surface of the eye and incubated in PBS for 60 min. […] At the specified times, ocular tissues were dissected and PS levels determined by HPLC. The Table below summarizes the findings."}, "[5]": {"test_system": "IL-8", "experiment": "IL-8 in culture medium of human conjunctival cells (ELISA)", "assay_type": "cell-based", "method": "(§1) Culture media were harvested 24 h later and the levels of TGF-β, IL-6 and IL-8 were determined by ELISA. Of note, the levels of IL-1β were below the limit of detection."}, "[6]": {"molecular_target": "T1, MMP-1 (collagenase I) (Homo sapiens, UniProt P03956)", "T1 sequence (P03956 100-469)": "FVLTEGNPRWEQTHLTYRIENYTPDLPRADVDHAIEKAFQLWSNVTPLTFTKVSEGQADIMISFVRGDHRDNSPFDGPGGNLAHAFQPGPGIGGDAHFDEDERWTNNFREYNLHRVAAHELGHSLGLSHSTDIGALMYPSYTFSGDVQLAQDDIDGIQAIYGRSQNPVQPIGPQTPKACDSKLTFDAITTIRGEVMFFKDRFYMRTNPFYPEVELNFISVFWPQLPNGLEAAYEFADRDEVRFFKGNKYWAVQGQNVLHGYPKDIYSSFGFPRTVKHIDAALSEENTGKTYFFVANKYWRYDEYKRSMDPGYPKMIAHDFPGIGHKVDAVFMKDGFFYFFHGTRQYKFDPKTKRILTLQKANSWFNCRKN", "experiment": "In vitro collagenase activity assay with purified MMP-1", "assay_type": "biochemical", "settings": "purified MMP-1 (collagenase I)", "method": "In an in vitro assay with purified MMP-1 (collagenase I) as […] it was shown that PS inhibited collagenase activity with an IC50 of <100 nM. In cultured human conjunctiva cells, PS suppressed MMP-1 by 75%-86%. In the lacrimal glands of rabbits with DED treated with PS eye drops, PS suppressed MMP-9 levels by 27% compared to vehicle treated rabbits (2.20±0.24 vs. 1.66±0.20 ng/mg protein; p<0.05; mean±SEM)."}, "[7]": {"test_system": "TGF-β", "experiment": "TGF-β in culture medium of human conjunctival cells (ELISA)", "assay_type": "cell-based", "method": "as §1"}, "[8]": {"settings": "TNF-α-stimulated, PS 1×IC50, media at 24 h"}},
  "data": [
    {"smiles": "CCOP(=O)(OCC)OCCCCOC(=O)CC1=C(C)/C(=C/c2ccc([S+](C)[O-])cc2)c2ccc(F)cc21", "note": "(centres unmarked) [PS, phosphosulindac]", "values": [
      {"measurement": "reduction of the number of VEGF positive cells", "setting": "[1]", "value": 73, "unit": "%"},
      {"measurement": "IL-8 in the ILG", "setting": "[2]; Con A DED rabbits, 6 days, eye drops 3×/day, PS nanoparticles, cyclosporine 0.05%, lifitegrast 5%, mean ± SEM", "value": "4.9 ± 1.7", "unit": "pg/mg protein"},
      {"measurement": "suppression of IL-8 levels in the ILG", "setting": "[2]; rabbits treated with PS for 1 week vs vehicle", "value": 64, "unit": "%"},
      {"measurement": "inhibition at 16 µM", "setting": "[3]; Gallus gallus, 96 h, VEGF + PS 16 μM", "value": 26, "unit": "%"},
      {"measurement": "inhibition at 50 µM", "setting": "[3]; Gallus gallus, 96 h, VEGF + PS 50 μM", "value": 34, "unit": "%"},
      {"measurement": "neovascularization % inhibition", "setting": "[3]; PS 50 μM without VEGF", "value": "29 (P < 0.016) %"},
      {"measurement": "# of new vessels", "setting": "[3]; PS 50 μM without VEGF", "value": "41 ± 3.2"},
      {"measurement": "# of new vessels", "setting": "[3]; VEGF + PS 16 μM", "value": "46.4 ± 1.5"},
      {"measurement": "# of new vessels", "setting": "[3]; VEGF + PS 50 μM", "value": "41.4 ± 1.0"},
      {"measurement": "PS in Aqueous", "setting": "[4]; 0.5% PS HP-β-CD solution", "value": 2.4, "unit": "µM"},
      {"measurement": "PS in Choroid", "setting": "[4]; 0.5% PS HP-β-CD solution", "value": 28.5, "unit": "µM"},
      {"measurement": "PS in Cornea", "setting": "[4]; 0.5% PS HP-β-CD solution", "value": 187.2, "unit": "µM"},
      {"measurement": "PS in Iris", "setting": "[4]; 0.5% PS HP-β-CD solution", "value": 25.6, "unit": "µM"},
      {"measurement": "PS in Lens", "setting": "[4]; 0.5% PS HP-β-CD solution", "value": 0.6, "unit": "µM"},
      {"measurement": "PS in Retina", "setting": "[4]; 0.5% PS HP-β-CD solution", "value": 2.9, "unit": "µM"},
      {"measurement": "PS in Sclera", "setting": "[4]; 0.5% PS HP-β-CD solution", "value": 381.3, "unit": "µM"},
      {"measurement": "PS in Vitreous", "setting": "[4]; 0.5% PS HP-β-CD solution", "value": 0.3, "unit": "µM"},
      {"measurement": "PS in Cornea", "setting": "[4]; 2.0% PS HP-β-CD solution", "value": 397.7, "unit": "µM"},
      {"measurement": "PS in Iris", "setting": "[4]; 2.0% PS HP-β-CD solution", "value": 34.2, "unit": "µM"},
      {"measurement": "PS in Lens", "setting": "[4]; 2.0% PS HP-β-CD solution", "value": 1.4, "unit": "µM"},
      {"measurement": "PS in Retina", "setting": "[4]; 2.0% PS HP-β-CD solution", "value": 38.7, "unit": "µM"},
      {"measurement": "PS in Sclera", "setting": "[4]; 2.0% PS HP-β-CD solution", "value": 870.9, "unit": "µM"},
      {"measurement": "PS in Aqueous", "setting": "[4]; 3.3% PS HP-β-CD solution", "value": 19.5, "unit": "µM"},
      {"measurement": "PS in Choroid", "setting": "[4]; 3.3% PS HP-β-CD solution", "value": 261.4, "unit": "µM"},
      {"measurement": "PS in Cornea", "setting": "[4]; 3.3% PS HP-β-CD solution", "value": 266.4, "unit": "µM"},
      {"measurement": "PS in Iris", "setting": "[4]; 3.3% PS HP-β-CD solution", "value": 169.3, "unit": "µM"},
      {"measurement": "PS in Lens", "setting": "[4]; 3.3% PS HP-β-CD solution", "value": 1.9, "unit": "µM"},
      {"measurement": "PS in Retina", "setting": "[4]; 3.3% PS HP-β-CD solution", "value": 48.5, "unit": "µM"},
      {"measurement": "PS in Sclera", "setting": "[4]; 3.3% PS HP-β-CD solution", "value": "2,596.6 μM"},
      {"measurement": "PS in Vitreous", "setting": "[4]; 3.3% PS HP-β-CD solution", "value": 4.3, "unit": "µM"},
      {"measurement": "IL-8 reduction", "setting": "[5]; [8]", "value": 92, "unit": "%"},
      {"measurement": "IL-8 reduction", "setting": "[5]; unstimulated levels, PS 1×IC50", "value": 62, "unit": "%"},
      {"measurement": "IC50", "setting": "[6]", "value": "< 100", "unit": "nM"},
      {"measurement": "TGF-β reduction", "setting": "[7]; [8]", "value": 19, "unit": "%"},
      {"measurement": "TGF-β reduction", "setting": "[7]; unstimulated levels, PS 1×IC50, not statistically significant", "value": 4.7, "unit": "%"}
    ]}
  ]
}
